# Columns and labels:
# Format in all cases: cell-based
# [1] = system: mouse macrophage cell line RAW264.7 cells; assay: Suppressive action on expression caused by gene induction by LPS stimulation (DNA Chip); conditions: 100 nM + LPS 10 ng/mL, 6 hr
# Method: A suppressive effect of test compound 1 (compound 72 of • Reference Example B66) on the production of various mediators by lipopolysaccharide (LPS), which is a TLR4 agonist, in mouse macrophage cell line RAW264.7 cells was examined. The day before the experiment, the cells were suspended to 5×10^5 cells/mL in RPMI1640 medium supplemented with 10% inactivated fetal bovine serum, plated on a plate and incubated at 37° C., 5% CO2/95% air overnight. The medium was changed to RPMI1640 medium supplemented with 1% inactivated fetal bovine serum, and test compound 1 (final concentration 100 nM) and LPS (final concentration 10 ng/mL) were added. After culture for 6 hr, RNA was prepared by a conventional method and gene was analyzed using DNA Chip (Mu73A, Affimetrix) and Gene Spring ver. 4. The test substance was dissolved in N,N-dimethylformamide to 10 mM and diluted with a medium.
# [2] = system: mouse macrophage cell line RAW264.7 cells; assay: Suppressive action on production of cytokine from LPS stimulated macrophage (BioPlex cytokine assay); conditions: 100 nM + LPS 10 ng/mL, overnight
# Method: A suppressive effect of test compound 1 (compound 72 of Reference Example B66) on the production of various cytokines by lipopolysaccharide (LPS), which is a TLR4 agonist, using mouse macrophage cell line RAW264.7 cells was examined. The day before the experiment, the cells were suspended to 1×10^6 cells/mL in RPMI1640 medium supplemented with 10% inactivated fetal bovine serum, plated on a 96 well microplate at 0.1 mL/well and incubated at 37° C., 5% CO2/95% air overnight. The medium was changed, and test compound 1 (final concentration 100 nM) and LPS (final concentration 10 ng/mL) were added. After overnight culture, the content of cytokine in the culture supernatant was quantified by BioPlex cytokine assay (Bio-Rad). Test compound 1 was dissolved in dimethyl sulfoxide (DMSO) to 10 mM, diluted with RPMI1640 medium supplemented with 1% inactivated fetal bovine serum to 0.1 mM, further diluted with the medium to 10-fold concentration of the final concentration and 1/10 thereof was added.
# [3] = system: Peripheral Blood Mononuclear Cells; assay: Influence on binding of LPS to PBMC (flow cytometry); conditions: 10 μM; 4° C. 30 min, then labeled LPS 50 ng/mL, 1% human serum, 37° C. 45 min; FIG. 2
# Source text: FIG. 2 is a graph showing the effects of test compound 1, anti-CD14 antibody and anti-CCR5 antibody on the binding of LPS to PBMC. With an average of triplicate measurement values of LPS alone as 100%, % averages of triplicate measurement values of other groups are shown, mean±standard error (Experimental Example 6, results of 4 independent tests using PBMC obtained from the blood of different 4 subjects).
# Peripheral Blood Mononuclear Cells were Separated by a conventional method, and reacted with test compound 1 (compound 72 of Reference Example B66), anti-human CD14 monoclonal antibody MEM-18 and anti-human CCR5 monoclonal antibody 2D7 (negative control) at 4° C. for 30 min. The cells were reacted with fluorescence label LPS (E. coli O55:B5, Alexa Fluor® 488-labeled, 50 ng/mL) in the presence of 1% human serum at 37° C. for 45 min. The cells (10,000 cells) were washed and the binding of fluorescence label LPS was examined by flow cytometry.
smiles,measurement,setting,value
"CCOC(=O)C1=CCCC[C@H]1S(=O)(=O)Nc1ccc(F)cc1Cl [test compound 1, ethyl (6R)-6-[(2-chloro-4-fluoroanilino)sulfonyl]-1-cyclohexene-1-carboxylate]",gene variation by LPS stimulation,[1]; all genes analyzed that showed variation by LPS,suppressed almost all the gene variation analyzed
same,expression of mRNA (fluorescence intensity): MMP-9,"[1]; control 0, LPS 3571.5",352.6
same,expression of mRNA (fluorescence intensity): bcl-3,"[1]; control 0, LPS 7512.6",158.7
same,expression of mRNA (fluorescence intensity): Guanylate binding protein-2,"[1]; control 0, LPS 8931.2",19.4
same,expression of mRNA (fluorescence intensity): RANTES,"[1]; control 0, LPS 12030.1",34.8
same,expression of mRNA (fluorescence intensity): IL-1 beta,"[1]; control 0, LPS 18712.2",424.9
same,expression of mRNA (fluorescence intensity): Cytokine inducible SH2-containing protein,"[1]; control 0, LPS 22669.3",2092.5
same,expression of mRNA (fluorescence intensity): MCP-3,"[1]; control 2.4, LPS 3159.0",46.5
same,expression of mRNA (fluorescence intensity): Adenosine A2b receptor,"[1]; control 2.7, LPS 2092.2",141.9
same,expression of mRNA (fluorescence intensity): inducible nitric oxide synthase,"[1]; control 9.3, LPS 1251.6",125.9
same,expression of mRNA (fluorescence intensity): COX-2,"[1]; control 24.4, LPS 13981.9",71.9
same,expression of mRNA (fluorescence intensity): CCR1,"[1]; control 26.5, LPS 1877.4",137.9
same,expression of mRNA (fluorescence intensity): IL-6,"[1]; control 26.7, LPS 5345.6",0
same,expression of mRNA (fluorescence intensity): IP-10,"[1]; control 40.1, LPS 12954.7",30.7
same,expression of mRNA (fluorescence intensity): Histidine decarboxylase,"[1]; control 44.3, LPS 4472.2",21.1
same,expression of mRNA (fluorescence intensity): IL-4 receptor,"[1]; control 84.4, LPS 7015.8",160.6
same,expression of mRNA (fluorescence intensity): MCP-1,"[1]; control 115.6, LPS 24184.7",336.8
same,expression of mRNA (fluorescence intensity): Fas antigen,"[1]; control 132.7, LPS 2507.5",202.7
same,expression of mRNA (fluorescence intensity): A20,"[1]; control 143.9, LPS 1044.3",204.0
same,expression of mRNA (fluorescence intensity): IL-1 receptor antagonist,"[1]; control 156.9, LPS 21942.3",538.2
same,expression of mRNA (fluorescence intensity): P2X4,"[1]; control 193.0, LPS 1239.3",227.0
same,expression of mRNA (fluorescence intensity): plasminogen activator inhibitor,"[1]; control 199.1, LPS 15207.5",67.5
same,expression of mRNA (fluorescence intensity): TNF receptor associated factor,"[1]; control 213.6, LPS 2457.3",311.4
same,expression of mRNA (fluorescence intensity): IL-10,"[1]; control 221.8, LPS 6617.9",128.1
same,expression of mRNA (fluorescence intensity): Janus kinase 2,"[1]; control 228.3, LPS 2175.1",310.9
same,expression of mRNA (fluorescence intensity): argininosuccinate synthetase,"[1]; control 376.7, LPS 8623.2",478.9
same,expression of mRNA (fluorescence intensity): Major histocompatibility complex,"[1]; control 378.5, LPS 3399.6",353.0
same,expression of mRNA (fluorescence intensity): serum amyloid A,"[1]; control 393.1, LPS 24253.2",1041.0
same,expression of mRNA (fluorescence intensity): Caspase-11,"[1]; control 436.0, LPS 6975.7",763.5
same,expression of mRNA (fluorescence intensity): Phosphatase PAC1,"[1]; control 653.7, LPS 12520.7",765.9
same,expression of mRNA (fluorescence intensity): G-CSF,"[1]; control 698.4, LPS 18440.5",844.9
same,expression of mRNA (fluorescence intensity): IL-18,"[1]; control 708.7, LPS 4881.4",429.4
same,expression of mRNA (fluorescence intensity): MIP-2,"[1]; control 819.2, LPS 12542.9",3055.0
same,expression of mRNA (fluorescence intensity): TNF receptor,"[1]; control 906.2, LPS 24864.6",3467.0
same,expression of mRNA (fluorescence intensity): Fc receptor,"[1]; control 1244.4, LPS 20683.4",982.5
same,expression of mRNA (fluorescence intensity): Interferon regulatory factor,"[1]; control 1491.7, LPS 7554.9",1356.3
same,expression of mRNA (fluorescence intensity): Galectin-9,"[1]; control 1904.3, LPS 19639.3",3639.2
same,expression amount of cytokines: IL1beta,"[2]; control 0, LPS 97",2 pg/mL
same,expression amount of cytokines: IL12(p40),"[2]; control 3, LPS 18",4 pg/mL
same,expression amount of cytokines: IL2,"[2]; control 3, LPS 20",8 pg/mL
same,expression amount of cytokines: IL3,"[2]; control 3, LPS 22",3 pg/mL
same,expression amount of cytokines: IFNgamma,"[2]; control 9, LPS 31",8 pg/mL
same,expression amount of cytokines: IL17,"[2]; control 9, LPS 50",13 pg/mL
same,expression amount of cytokines: KC,"[2]; control 10, LPS 79",22 pg/mL
same,expression amount of cytokines: IL12(p70),"[2]; control 12, LPS 48",13 pg/mL
same,expression amount of cytokines: IL1alpha,"[2]; control 21, LPS 74",47 pg/mL
same,expression amount of cytokines: IL10,"[2]; control 25, LPS 80",20 pg/mL
same,expression amount of cytokines: RANTES,"[2]; control 31, LPS 1520",48 pg/mL
same,expression amount of cytokines: TNFalpha,"[2]; control 48, LPS 10483",125 pg/mL
same,expression amount of cytokines: GM-CSF,"[2]; control 53, LPS 135",85 pg/mL
same,expression amount of cytokines: IL6,"[2]; control 82, LPS 233",152 pg/mL
same,binding of fluorescence label LPS to PBMC,[3],completely failed to inhibit
